Measurements published in PubChem BioAssay (NCI).
Where “and” joins values, the source holds several entries; their conditions need not be identical. Equal entries are not always repeated.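 Briefly, cells in 96-well plates were exposed to five compound concentrations for 48 h, and endpoints were estimated by linear interpolation. GI50 is the concentration that inhibits growth by half. TGI: concentration producing complete growth inhibition.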

Tested on: MDA-MB-468 breast
Assay: growth of human tumour cells (NCI), 48 h

SMILES | GI50 | TGI
CCO/C=N/C1=C(C#N)C(c2ccc(OC)cc2)c2sc3c(C)cccc3c2O1 (stereo unspecified) | 0.276 µM | 5.69 µM
COc1cc(Cl)cc(-c2nn(-c3cccc(NC(=O)Nc4ccc(Cl)c(C(F)(F)F)c4)c3)cc2-c2ccncc2)c1 | 0.99 µM | 5.47 µM
COc1cc(/C=C/C(=O)c2cccnc2Nc2ccc(F)cc2)cc(OC)c1OC | 1.77 µM | 5.67 µM
C/C=C(\C)C(=O)N[C@H]1C(O)C[C@]2(C)C3CC[C@@]4(C)C(CC[C@@H]4C(C)N(C)C)C3CCC2C1O (stereo partly specified) | 1.7 µM | 4.54 µM
COc1ccc(-c2nn(-c3cccc(NC(=O)c4ccc(N5CCOCC5)c(C(F)(F)F)c4)c3)cc2-c2ccncc2)cc1Cl | 6.88 µM | > 50 µM
Cc1nc(Nc2nc3ccccc3o2)nc(-c2cccc([N+](=O)[O-])c2)c1C(=O)Nc1ccc(F)c(Cl)c1 | 1.28 µM | 6.44 µM
Cc1cccc2c(N)c3ccccc3nc12 | 1.44 µM | 4.63 µM
COc1ccc(OC)c(Nc2nc(-c3c(C)nc4sccn34)cs2)c1 | 1.7 µM | 75.3 µM
CC(=O)Oc1ccc(C(c2ccc(OC(C)=O)cc2)c2ccccn2)cc1 | 0.458 µM and 1.34 µM | 25 µM and 45.2 µM
O=S(=O)(NCCNc1nccc(-c2c(-c3ccc(F)cc3)nc3sccn23)n1)c1ccccc1 | 4.34 µM | > 100 µM
C=C1c2c(Cl)ccc(O)c2C(O)=C2C(=O)[C@]3(O)C(O)=C(C(N)=O)C(=O)[C@@H](N(C)C)[C@@H]3[C@@H](O)[C@H]12 | 0.846 µM | 2.56 µM
CC(C)COC(=O)c1ccc2[nH]c(O)c(C=Nc3ccc(S(N)(=O)=O)cc3)c2c1 | 1.57 µM | 4.36 µM
OCCN1CCN(CC/C=C2\c3ccccc3Sc3ccc(Cl)cc32)CC1 | 1.54 µM and 1.82 µM | 3.18 µM and 4.05 µM
CCn1c2ccccc2c2cc(C(O)c3cccc4ncccc34)ccc21 (stereo unspecified) | 0.0326 µM | 0.849 µM
O=C(Nc1ccc(I)cc1F)c1cc(Cl)ccc1O | 0.361 µM | 1.73 µM
CO[C@H]1CC(c2ccc[nH]2)=N[C@]12O[C@@H](C)C[C@@H]1CCCCCCCc3ccc([nH]3)[C@H]12 | 0.444 µM | 3.62 µM
Oc1ccc(Cl)cc1CNc1nc2ccccc2[nH]1 | 5.72 µM | 21.9 µM
COc1cc(/C=N/NC(=O)c2cn(C3CC3)c3c(OC)c(N4CC5CCCNC5C4)c(F)cc3c2=O)ccc1O (stereo unspecified) | 1.63 µM | 3.11 µM
C#Cc1nc(C2=C(C)C(OC(C)=O)/C(=N/OC(C)=O)C2)cs1 (stereo unspecified) | 2.07 µM | 8.72 µM
COc1ccc2nc(NC(=O)c3cccnc3Nc3cc(OC)c(OC)c(OC)c3)sc2c1 | 17.8 µM | 62.7 µM
O=C1NCCS(=O)(=O)/C1=C\C=C\c1cccc(C(F)(F)F)c1 | 1.56 µM | 4.53 µM
CCOC(=O)/C(C#N)=C/c1ccc2c(c1)CC1(C2)Cc2cc(CC)c(C(C)O)cc2C1 (stereo unspecified) | 12.4 µM | 36.8 µM
c1ccc(CNc2nc(Nc3ccccc3)nc3ccccc23)cc1 | 1.09 µM | 2.56 µM
CN(C)CCN1C(=O)c2cccc3cccc(c23)C1=O | 10.3 µM | > 25 µM
Cn1cnc([N+](=O)[O-])c1Sc1ncn[nH]1 | 21 µM | > 100 µM
COc1ccc(C2=CC(c3ccc(OC)c(OC)c3)c3c(c4ccccc4oc3=O)O2)cc1OC (stereo unspecified) | 0.475 µM | 8.3 µM
CC(C)CCN[C@@H]1CCc2cc(O)c(N3CC(=O)NS3(=O)=O)c(F)c2C1 | > 100 µM | > 100 µM
Cn1c(=O)c(Oc2ccc(F)cc2F)cc2cnc(NCCS(C)(=O)=O)nc21 | > 25 µM | > 25 µM
